Measured values reported in paper PMC9887192, “Lethal activity of BRD4 PROTAC degrader QCA570 against bladder cancer cells” (Frontiers in Chemistry, 2023).

Biological target: BRD4 (Homo sapiens, UniProt O60885)
Assay: PROTAC degradation in bladder cancer cells by Western blot; blocked by JQ1, MG132 and MLN4924
Format: cell-based

DC50: ~1 nM
SMILES: Cc1nnc2n1-c1sc(C#Cc3cnn(CCCC#Cc4cccc5c4CN(C4CCC(=O)NC4=O)C5=O)c3)c(Cc3ccccc3)c1COC2 (stereo not shown) [QCA570]
